{
  "source": "paper PMC4631608",
  "about": "(Journal of structural and functional genomics, 2015)",
  "target": "M. tuberculosis Rv1496 (Mycobacterium tuberculosis, UniProt P9WPZ1)",
  "sequence (P9WPZ1 3-336)": "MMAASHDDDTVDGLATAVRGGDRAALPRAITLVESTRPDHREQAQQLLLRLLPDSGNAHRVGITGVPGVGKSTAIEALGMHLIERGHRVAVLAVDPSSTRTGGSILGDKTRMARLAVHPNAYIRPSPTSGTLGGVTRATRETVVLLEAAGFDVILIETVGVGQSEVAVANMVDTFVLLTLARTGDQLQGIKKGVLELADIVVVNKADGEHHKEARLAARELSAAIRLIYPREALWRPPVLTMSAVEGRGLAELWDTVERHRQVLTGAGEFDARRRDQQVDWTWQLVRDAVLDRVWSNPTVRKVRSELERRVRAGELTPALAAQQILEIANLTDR",
  "data": [
    {"smiles": "Nc1nc2c(ncn2[C@@H]2O[C@H](COP(=O)(O)OP(=O)(O)O)[C@@H](O)[C@H]2O)c(=O)[nH]1", "note": "[GDP]", "values": [
      {"measurement": "X-ray co-crystal structure, 2.45 Å", "value": "Rv1496 binds GDP via hydrogen bonds, one salt bridge, and van der Waals interactions"}
    ]}
  ]
}
